# In US8637563B2, “Non-peptide thrombopoietin receptor agonist in the treatment of cancer and pre-cancerous syndromes” (GlaxoSmithKline LLC, priority 2007, dated 2014):
# What was measured:
# Assay type in all cases: cell-based
# [1] = tested on: Akt (Ser473) activation in washed human platelets; test: Activation of Akt in human platelets; conditions: TPO 100 ng/mL; for Akt activation (phosphorylation), agent alone: 15 minutes alone, Compound A (SB) 10 mM, phosphorylation-specific antibodies, Blot 1
# Method: Washed human platelets from healthy volunteers were treated with vehicle (V) [0.33% DMSO], 100 ng/mL TPO [recombinant human thrombopoietin obtained from R&D Systems, Inc., Minneapolis, Minn., USA, or SB (SB=Compound A in Blot 1) (10 mM) for 15 minutes alone, or 13 minutes alone followed by 2 minutes with 1 mM ADP (+ADP). Protein extracts were probed for Akt (Ser473) activation. Results are representative of 3 individual experiments.
# Compound A was compared to TPO in human platelets through the examination of a signal transduction pathway known to be activated through TPOR [TPO receptor] stimulation; specifically, Pi3K/Akt pathway activation [Chen, J., et al., Blood, 86, 4054-4062 (1995); Kojima, H., et al., Thrombosis & Haemostassis, 74, 1541-1545 (1995); Ezumi, Y., et al., FEBS Letters, 374, 48-52 (1995)].
# [2] = tested on: NCI-H226 (NSCLC); test: Solid Tumor Cell Line Proliferation Assay, NCI-H226; conditions: Homo sapiens; NCI-H226, 72 hr, Cell Titer Glo
# Method: (§1) Cells in log phase growth were seeded in a 96-well plate at 2500 cells/well in 50 uL medium and incubated at 37° C., 5% CO2 overnight. Compound A was diluted in medium and added at 0.1, 0.4, 1, 4, 10 and 40 ug/mL. Following a 72 hr incubation at 37° C., 5% CO2. The CellTiter-Glo Luminescent Cell Viability Assay (ProMega Corp) was performed according to the manufacturer's instructions. Briefly following a 30 min room temperature incubation 100 uL CELLTiter Glo reagent was added to each well and mixed for 2 minutes. Luminescence was recorded following a 10 minute room temperature incubation using a PerkinElmer Microbeta luminescence counter. IC50 was determined by EXCel Fit 4.2.1.
# [3] = tested on: RPMI-8226 Plasmacytoma cells; test: Cancer Proliferation Assay (3H-thymidine uptake), RPMI-8226; conditions: Homo sapiens; RPMI-8226, 3 days, 3H-TdR uptake
# Method: (§2) Flat-bottom 96-well microtiter tissue culture plates (Costar, Cambridge, Mass.) were used for the assay. Cultures were performed in replicates of 4 wells; each well contained 1×10^4 cells. Six concentrations of Compound A (ranging from 40 μg/mL to 100 ng/mL) were tested in the absence and presence of 10 ng/mL G-CSF, 100 ng/mL of TPO or 5 U/mL of EPO. Cells were also tested in medium alone, G-CSF alone, TPO alone, or EPO alone to establish 100% of control values. The final volume in each well was 200 μL. Plates were placed in a humidified 5% CO2 incubator at 37° C. for 3 days. Proliferation was measured by the uptake of tritiated thymidine (^3H-TdR) by pulsing wells with 1 μCi of ^3H-TdR for the final 18 hours of incubation, harvesting the plate on a Brandel 96-well cell harvester (Gaithersburg, Md.) and measuring radioactivity on the filter mats in a Wallac 1450 Microbeta TriLux scintillation counter (Turku, Finland). The effect of Compound A was determined by comparing the results of cells treated with test compound with control cells (100% of control).
# [4] = tested on: MOLT-4 Acute Lymphoblastic T cell leukemia cells; test: Cancer Proliferation Assay (3H-thymidine uptake), MOLT-4; conditions: Homo sapiens; MOLT-4, 3 days, 3H-TdR uptake
# Method: as §2
# [5] = tested on: NCI-H522 (NSCLC); test: Solid Tumor Cell Line Proliferation Assay, NCI-H522; conditions: Homo sapiens; NCI-H522, 72 hr, Cell Titer Glo
# Method: as §1
# [6] = tested on: NCI-H322M (NSCLC); test: Solid Tumor Cell Line Proliferation Assay, NCI-H322M; conditions: Homo sapiens, 72 hr, Cell Titer Glo
# Method: as §1
# [7] = tested on: HOP-92 (NSCLC); test: Solid Tumor Cell Line Proliferation Assay, HOP-92; conditions: Homo sapiens; HOP-92, 72 hr, Cell Titer Glo
# Method: as §1
# [8] = tested on: HepG2 cells; test: Liver Cancer Assay (CellTiter Glo); conditions: Homo sapiens, HepG2, 72 hours, n=4 wells, read-out: IC50, decrease in the number of viable cells
# Method: HepG2 is a human hepatocellular carcinoma cell line. Active cell determinations were performed on HepG2 cells by plating 2×10^4 cells/mL in 96-well plates in culture medium containing 10% FBS and incubating overnight in 5% CO2 at 37°. Cells were then treated with Compound A at 0, 0.1, 0.4, 1, 4, 10, 40 ug/mL and incubated for 72 hours. Cell proliferation was measured using the CellTiter Glo (Promega) reagent according to the manufacturer's protocol. Data is the mean of n=4 wells reported as the percent of the control (0 ug/mL of Compound A). Compound A induced a decrease in the number of viable cells with an IC50 of approximately 6 ug/mL.
# [9] = tested on: HepG2 (Hepatocellular carcinoma); test: Solid Tumor Cell Line Proliferation Assay, HepG2; conditions: Homo sapiens; HepG2, 72 hr, Cell Titer Glo
# Method: Cells in log phase growth were seeded in a 96-well plate at 2500 cells/well in 50 uL medium and incubated at 37° C., 5% CO2 overnight. […] Following a 72 hr incubation at 37° C., 5% CO2. The CellTiter-Glo Luminescent Cell Viability Assay (ProMega Corp) was performed according to the manufacturer's instructions. Briefly following a 30 min room temperature incubation 100 uL CELLTiter Glo reagent was added to each well and mixed for 2 minutes. Luminescence was recorded following a 10 minute room temperature incubation using a PerkinElmer Microbeta luminescence counter. IC50 was determined by EXCel Fit 4.2.1.
# [10] = tested on: NCI-H460 (NSCLC); test: Solid Tumor Cell Line Proliferation Assay, NCI-H460; conditions: Homo sapiens; NCI-H460, 72 hr, Cell Titer Glo
# Method: as §1
# [11] = tested on: CCRF-CEM Lymphoblastic T cell leukemia cells; test: Cancer Proliferation Assay (3H-thymidine uptake), CCRF-CEM; conditions: Homo sapiens, 3 days, 3H-TdR uptake
# Method: as §2
# [12] = tested on: SR Immunoblastic Large Cell Leukemia cells; test: Cancer Proliferation Assay (3H-thymidine uptake), SR; conditions: 3 days, 3H-TdR uptake
# Method: as §2
# [13] = tested on: A549 (NSCLC); test: Solid Tumor Cell Line Proliferation Assay, A549; conditions: Homo sapiens; A549, 72 hr, Cell Titer Glo
# Method: as §1
# [14] = tested on: K562 Chronic Myelogenous leukemia cells; test: Cancer Proliferation Assay (3H-thymidine uptake), K562; conditions: Homo sapiens; K562, 3 days, 3H-TdR uptake
# Method: as §2
# [15] = tested on: NCI-H23 (NSCLC); test: Solid Tumor Cell Line Proliferation Assay, NCI-H23; conditions: Homo sapiens; NCI-H23, 72 hr, Cell Titer Glo
# Method: as §1
# [16] = tested on: HOP-62 (NSCLC); test: Solid Tumor Cell Line Proliferation Assay, HOP-62; conditions: Homo sapiens; HOP-62, 72 hr, Cell Titer Glo
# Method: as §1
# [17] = tested on: EKVX (NSCLC); test: Solid Tumor Cell Line Proliferation Assay, EKVX; conditions: Homo sapiens, 72 hr, Cell Titer Glo
# Method: as §1
molecule,measurement,setting,value
"Nc1ncnc2c1ncn2[C@@H]1O[C@H](COP(=O)(O)OP(=O)(O)O)[C@@H](O)[C@H]1O [ADP, reference compound]","Akt activation (phosphorylation), agent alone",[1],no activation observed
"CC1=NN(c2ccc(C)c(C)c2)C(=O)/C1=N\Nc1cccc(-c2cccc(C(=O)O)c2)c1O [Compound A, 3′-[(2Z)-[1-(3,4-dimethylphenyl)-1,5-dihydro-3-methyl-5-oxo-4H-pyrazol-4-ylidene]hydrazino]-2′-hydroxy-[1,1′-biphenyl]-3-carboxylic acid]",IC50,[2],11 µg/mL
same,IC50,[3],5.9 µg/mL
same,IC50,[4],0.56 µg/mL
same,IC50,[5],5.9 µg/mL
same,IC50,[6],8.3 µg/mL
same,IC50,[7],13.5 µg/mL
same,IC50,[8],~6 µg/mL
same,IC50,[9],5.61 µg/mL
same,IC50,[10],5.7 µg/mL
same,IC50,[11],0.74 µg/mL
same,IC50,[12],0.77 µg/mL
same,IC50,[13],9.1 µg/mL
same,IC50,[14],1.8 µg/mL
same,IC50,[15],13.9 µg/mL
same,IC50,[16],10.6 µg/mL
same,IC50,[17],12.7 µg/mL
same,"Akt activation (phosphorylation), agent alone",[1],no activation was observed
"TPO: recombinant human thrombopoietin obtained from R&D Systems, Inc.",Akt activation in combination with ADP (preincubation with agent),"[1]; 13 minutes alone followed by 2 minutes with ADP, Compound A 10 mM",significant enhancement of activation of Akt
same,"Akt activation (phosphorylation), agent alone",[1],significant Akt activation
